ChEMBL document CHEMBL3885861, “Open TG-GATES”

Species on record: Rattus norvegicus
Assay: Open TG-GATES - Regimen: Single
Assay type: toxicity, organism-based, Sprague-Dawley
Parameters: regimen Single, gender Male, age 6 weeks
Details: in vivo, po, route gavage; for Bas / Eos / Fbg / Lym / Mono / RBC / Ret / WBC: tissue Blood; for KIDNEY_L / KIDNEY_R / KIDNEY_TOTAL: tissue Kidney
[1] = 60 mg/kg, 3 h, dose level Middle
[2] = 60 mg/kg, 3 h, tissue Plasma, dose level Middle
[3] = 60 mg/kg, 6 h, dose level Middle
[4] = 60 mg/kg, 6 h, tissue Plasma, dose level Middle
[5] = 60 mg/kg, 9 h, dose level Middle
[6] = 60 mg/kg, 9 h, tissue Plasma, dose level Middle
[7] = 60 mg/kg, 24 h, dose level Middle
[8] = 60 mg/kg, 24 h, tissue Plasma, dose level Middle
[9] = 200 mg/kg, 3 h, dose level High
[10] = 200 mg/kg, 3 h, tissue Plasma, dose level High
[11] = 200 mg/kg, 6 h, dose level High
[12] = 200 mg/kg, 6 h, tissue Plasma, dose level High
[13] = 200 mg/kg, 9 h, dose level High
[14] = 200 mg/kg, 9 h, tissue Plasma, dose level High
[15] = 200 mg/kg, 24 h, dose level High
[16] = 200 mg/kg, 24 h, tissue Plasma, dose level High

C=C[C@H]1C[N@@]2CC[C@H]1C[C@@H]2[C@@H](O)c1ccnc2ccc(OC)cc12 [QUINIDINE] showed a Bas [1] of 0%, an Eos [1] of 0.4% and a Fbg [1] of 295 mg/dL. It also gave a Lym [1] of 73.2%, a Mono [1] of 2.6% and an RBC [1] of 588 x10_4/ul. It also gave a Ret [1] of 7.6%, a WBC [1] of 87.1 x10_2/uL and a KIDNEY_L [1] of 1 g. For the same compound, the KIDNEY_R [1] was 1 g, the KIDNEY_TOTAL [1] was 2 g and the ALP [2] was 1472.8 IU/L. For the same compound, the CRE [2] was 0.2 mg/dL, the DBIL [2] was 0.002 mg/dL and the IP [2] was 9.1 mg/dL. It also gave a K [2] of 4 meq/L, an LDH [2] of 131.2 IU/L and a Na [2] of 140.6 meq/L. It also gave a PL [2] of 148.2 mg/dL, an RALB [2] of 2.9 g/dL and a TBIL [2] of 0.026 mg/dL. The TG [2] was 56.2 mg/dL, the TP [2] was 5.2 g/dL and the gamma-GTP [2] was 2.2 IU/L. For the same compound, the TERMINAL_BW [3] was 218.5 g, the Bas [3] was 0% and the Eos [3] was 0.8%. It also gave a Fbg [3] of 301.2 mg/dL, a Lym [3] of 79.8% and a Mono [3] of 2.2%. It also gave an RBC [3] of 623.4 x10_4/ul, a Ret [3] of 6.6% and a WBC [3] of 77.2 x10_2/uL. For the same compound, the KIDNEY_L [3] was 1 g, the KIDNEY_R [3] was 1 g and the KIDNEY_TOTAL [3] was 2 g. For the same compound, the ALP [4] was 1426.2 IU/L, the CRE [4] was 0.2 mg/dL and the DBIL [4] was 0.002 mg/dL. For the same compound, the IP [4] was 9.1 mg/dL, the K [4] was 4.3 meq/L and the LDH [4] was 136.2 IU/L. It also gave a Na [4] of 142.6 meq/L, a PL [4] of 149.4 mg/dL and an RALB [4] of 3 g/dL. For the same compound, the TBIL [4] was 0.022 mg/dL, the TG [4] was 83.2 mg/dL and the TP [4] was 5.3 g/dL. For the same compound, the gamma-GTP [4] was 1.4 IU/L, the TERMINAL_BW [5] was 207.3 g and the Bas [5] was 0%. It also gave an Eos [5] of 0.8%, a Fbg [5] of 300 mg/dL and a Lym [5] of 77%. For the same compound, the Mono [5] was 1.6%, the RBC [5] was 622.8 x10_4/ul and the Ret [5] was 6.8%. It also gave a WBC [5] of 59.2 x10_2/uL, a KIDNEY_L [5] of 1 g and a KIDNEY_R [5] of 1 g. It also gave a KIDNEY_TOTAL [5] of 2 g, an ALP [6] of 1460.8 IU/L and a CRE [6] of 0.2 mg/dL. For the same compound, the DBIL [6] was 0.002 mg/dL, the IP [6] was 9.6 mg/dL and the K [6] was 4.4 meq/L. For the same compound, the LDH [6] was 141.8 IU/L, the Na [6] was 143.8 meq/L and the PL [6] was 139.8 mg/dL. The RALB [6] was 3 g/dL, the TBIL [6] was 0.024 mg/dL and the TG [6] was 74 mg/dL. The TP [6] was 5.4 g/dL, the gamma-GTP [6] was 1 IU/L and the TERMINAL_BW [7] was 225.2 g. The Bas [7] was 0%, the Eos [7] was 0.8% and the Fbg [7] was 337.8 mg/dL. For the same compound, the Lym [7] was 72.4%, the Mono [7] was 3.4% and the RBC [7] was 650.2 x10_4/ul. It also gave a Ret [7] of 6.9%, a WBC [7] of 95.3 x10_2/uL and a KIDNEY_L [7] of 1 g. The KIDNEY_R [7] was 1 g, the KIDNEY_TOTAL [7] was 2 g and the ALP [8] was 1697 IU/L. The CRE [8] was 0.1 mg/dL, the DBIL [8] was 0 mg/dL and the IP [8] was 8.1 mg/dL. It also gave a K [8] of 4.1 meq/L, an LDH [8] of 181.4 IU/L and a Na [8] of 141 meq/L. The RALB [8] was 3 g/dL, the TBIL [8] was 0.014 mg/dL and the TP [8] was 5.6 g/dL. The gamma-GTP [8] was 1.4 IU/L, the TERMINAL_BW [9] was 218.1 g and the Bas [9] was 0%. It also gave an Eos [9] of 0.8%, a Fbg [9] of 267 mg/dL and a Lym [9] of 76.2%. It also gave a Mono [9] of 2.2%, an RBC [9] of 571.6 x10_4/ul and a Ret [9] of 6.9%. It also gave a WBC [9] of 60.8 x10_2/uL, a KIDNEY_L [9] of 1 g and a KIDNEY_R [9] of 1 g. It also gave a KIDNEY_TOTAL [9] of 2 g, an ALP [10] of 1429.4 IU/L and a CRE [10] of 0.2 mg/dL. For the same compound, the DBIL [10] was 0.002 mg/dL, the GLC [10] was 172 mg/dL and the IP [10] was 9.1 mg/dL. It also gave a K [10] of 4 meq/L, an LDH [10] of 121 IU/L and a Na [10] of 140.6 meq/L. It also gave a PL [10] of 126.8 mg/dL, an RALB [10] of 2.9 g/dL and a TBIL [10] of 0.02 mg/dL. It also gave a TC [10] of 66.2 mg/dL, a TG [10] of 46.8 mg/dL and a TP [10] of 5.1 g/dL. The gamma-GTP [10] was 1.4 IU/L, the TERMINAL_BW [11] was 221.5 g and the Bas [11] was 0%. For the same compound, the Eos [11] was 0.8%, the Fbg [11] was 318.2 mg/dL and the Lym [11] was 76.4%. It also gave a Mono [11] of 2.2%, an RBC [11] of 584.8 x10_4/ul and a Ret [11] of 7.5%. The WBC [11] was 76 x10_2/uL, the KIDNEY_L [11] was 1 g and the KIDNEY_R [11] was 1 g. The KIDNEY_TOTAL [11] was 2 g, the ALP [12] was 1392.8 IU/L and the CRE [12] was 0.2 mg/dL. The DBIL [12] was 0.004 mg/dL, the IP [12] was 8.7 mg/dL and the K [12] was 4.3 meq/L. It also gave an LDH [12] of 181.8 IU/L, a Na [12] of 142 meq/L and an RALB [12] of 3 g/dL. It also gave a TBIL [12] of 0.024 mg/dL, a TC [12] of 86.4 mg/dL and a TG [12] of 55.4 mg/dL. For the same compound, the TP [12] was 5.4 g/dL, the gamma-GTP [12] was 1.2 IU/L and the TERMINAL_BW [13] was 218.2 g. It also gave a Bas [13] of 0%, an Eos [13] of 0.8% and a Fbg [13] of 309.8 mg/dL. The Lym [13] was 74%, the Mono [13] was 1.6% and the RBC [13] was 591 x10_4/ul. It also gave a Ret [13] of 6.5%, a WBC [13] of 63.2 x10_2/uL and a KIDNEY_L [13] of 1 g. The KIDNEY_R [13] was 1 g, the KIDNEY_TOTAL [13] was 2 g and the ALP [14] was 1558.2 IU/L. It also gave a CRE [14] of 0.1 mg/dL, a DBIL [14] of 0.004 mg/dL and an IP [14] of 8.9 mg/dL. The K [14] was 4.4 meq/L, the LDH [14] was 118.4 IU/L and the Na [14] was 142.6 meq/L. It also gave a PL [14] of 148.2 mg/dL, an RALB [14] of 3 g/dL and a TBIL [14] of 0.028 mg/dL. The TG [14] was 71.6 mg/dL, the TP [14] was 5.4 g/dL and the gamma-GTP [14] was 1.2 IU/L. It also gave a TERMINAL_BW [15] of 231.5 g, a Bas [15] of 0% and an Eos [15] of 0.8%. It also gave a Fbg [15] of 319.6 mg/dL, a Lym [15] of 74.8% and a Mono [15] of 3%. For the same compound, the RBC [15] was 633.6 x10_4/ul, the Ret [15] was 7.1% and the WBC [15] was 84.6 x10_2/uL. The KIDNEY_L [15] was 1 g, the KIDNEY_R [15] was 1.1 g and the KIDNEY_TOTAL [15] was 2.1 g. The ALP [16] was 1496.4 IU/L, the CRE [16] was 0.1 mg/dL and the DBIL [16] was 0.002 mg/dL. For the same compound, the IP [16] was 9.1 mg/dL, the K [16] was 4.1 meq/L and the LDH [16] was 144.2 IU/L. The Na [16] was 141 meq/L, the PL [16] was 146.8 mg/dL and the RALB [16] was 3 g/dL. It also gave a TBIL [16] of 0.01 mg/dL, a TP [16] of 5.6 g/dL and a gamma-GTP [16] of 1.6 IU/L.
